From patent US20180340225A1 (SHANGHAI INSTITUTE FOR ENDOCRINE AND METABOLIC DISEASES, priority 2015, published 2018)

System: patients with Type 2 diabetes
Assay: Clinical efficacy indexes before and after 3 months of Acarbose treatment in naïve patients with Type 2 diabetes, by enterotype
Format: in vivo, human
Conditions: Prevotella enterotype, After treatment
Protocol: For naïve patients with Type 2 diabetes, their liver and kidney functions, blood glucose and lipid levels, intestinal hormones, inflammatory factors, and cardiovascular risk-related factors are evaluated before medication. Their stool, urine, and blood samples are retained. […] The patients' blood glucose levels are followed up every month within 3 months, and the medication is adjusted according to the blood glucose level. Three months later, the pre-medication assessment is repeated, and the urine, stool and blood samples are retained.
a) A randomized, opened, positive control method is adopted to collect the naïve patients with Type 2 diabetes and normal controls of their spouses. […] The newly diagnosed patients of Type 2 diabetes without medication receive routine examinations, including the retention of stool and blood samples.
i. Draw venous blood 15 ml under fasting condition, of which, 1.5 ml is used for detection of plasma glucose, 6.5 ml is added to ordinary tubes (including aprotinin, DPPV inhibitor), and 6.5 ml is added to anticoagulant tubes (including heparin and RNA later)
ii. Centrifuge the blood in ordinary tube at 4° C., when serum is separated out, draw about 3 ml, and divide to three 1.5 ml Eppendorf on average, then tighten the tube caps;
iii. Centrifuge the anticoagulation blood immediately at 4° C., to separate out about 3 ml of plasma, then divide to three 1.5 ml imported RNAase free Eppendorf tubes on average, […]

C[C@H]1O[C@H](O[C@H]2[C@H](O)[C@@H](O)[C@@H](O[C@H]3[C@H](O)[C@@H](O)C(O)O[C@@H]3CO)O[C@@H]2CO)[C@H](O)[C@@H](O)[C@@H]1N[C@H]1C=C(CO)[C@@H](O)[C@H](O)[C@H]1O (stereo partly shown) [Acarbose]
AKP Mean: 77.5
ALB Mean: 44.39
ALT Mean: 44.36
APOA Mean: 1.267
APOB Mean: 0.9273
AST Mean: 29.36
Adipisin Mean: 3221619.467
Adpn Mean: 10063264.07
BMI Mean: 25.11
BW Mean: 72.63
CP0 Mean: 2.485
CP30 Mean: 2.802
CP60 Mean: 3.609
CP120 Mean: 5.305
CP180 Mean: 4.735
DBIL Mean: 6.293
DBP Mean: 74.93
ENDOM Mean: 14.27
Endothelin Mean: 4.776
FABP3 Mean: 2147
FABP4 Mean: 10510.4
FGF1M Mean: 24.33
FGF2M Mean: 13.67
FGF19M Mean: 19.3
FGF23M Mean: 43.47
G30 Mean: 7.601
G60 Mean: 9.055
G120 Mean: 9.171
G180 Mean: 7.853
GIP0 Mean: 57.4
GIP30 Mean: 208.4
GIP60 Mean: 217.2
GIP120 Mean: 227.8
GIP180 Mean: 194.8
GMCSFM Mean: 67.97
GO Mean: 6.712
HB Mean: 147.8
HBA1C Mean: 6.313
HDL Mean: 2.869
HGF Mean: 400.9
HIP Mean: 97.21
HOMA.IR Mean: 3.327
IFNr1 Mean: 38.8
IL1B Mean: 0.9107
IL1bM Mean: 22.23
IL2M Mean: 58.77
IL4M Mean: 31.074
IL5M Mean: 43.97
IL6M Mean: 40.53
IL6 Mean: 2.665
IL8 Mean: 15.44
IL9M Mean: 84.9
IL10 Mean: 1.798
IL12 Mean: 9.944
IL13 Mean: 279.4
IL15M Mean: 291.8
IL17AM Mean: 32.03
IL17EM Mean: 21.23
IL17FM Mean: 232.6
IL21 Mean: 34.47
IL22M Mean: 30.5
IL23M Mean: 41.7
IL27 Mean: 73.1
IL28a Mean: 18.37
IL31M Mean: 112.3
IL33M Mean: 43.5
INS0 Mean: 11.734
INS30 Mean: 14.21
INS60 Mean: 23.404
INS120 Mean: 27.84
INS180 Mean: 20.88
K Mean: 4.054
LBP Mean: 17.616
LDL Mean: 1.169
LEPTIN Mean: 4522
LPA Mean: 214.8
Lymph Mean: 28.21
MCP1 Mean: 252.8
MIP3A Mean: 29.94
NEU Mean: 63.59
NGAL Mean: 174248.3333
NGF Mean: 2.434
Na Mean: 142.2
PAI1 Mean: 61006.73333
PDGFAA Mean: 4507
PDGFAABB Mean: 24006.8
PP0 Mean: 69.67
PP30 Mean: 376.7
PP60 Mean: 318.92
PP120 Mean: 260.1
PP180 Mean: 204.7
RANTES Mean: 47562.53333
RBC Mean: 4.945
RCv Mean: 0.4421
SBP Mean: 119.8
TBIL Mean: 14.9
TC Mean: 4.883
TG Mean: 1.694
TNFBM Mean: 44.7
TNFa Mean: 4.572
TPRO Mean: 73.55
Trophonin M Mean: 17.9
WAIST Mean: 88.93
WBC Mean: 6.146
WHR Mean: 0.9136
bun Mean: 326.5
creatine Mean: 67.42
crp Mean: 19.638
egf Mean: 267.604
fetuinA Mean: 417.3
fgf1 Mean: 13.79
fgf2 Mean: 43.98
fgf21M Mean: 97.93
fgf21 Mean: 0.296
monocyte Mean: 5.829
mpo Mean: 467.3
oscatinM Mean: 101.1
pCP0 Mean: 1066
pCP30 Mean: 1362
pCP60 Mean: 1935.42
pCP120 Mean: 2723.04
pCP180 Mean: 2526
pGLP10 Mean: 3.644
pGLP130 Mean: 11.41
pGLP160 Mean: 13.72
pGLP1120 Mean: 9.07
pGLP1180 Mean: 6.458
pHOMA.IR Mean: 2.717
pgh0 Mean: 53.4025
pgh30 Mean: 64.28
pgh60 Mean: 56.35
pgh120 Mean: 42.5275
pgh0180 Mean: 50.87
pgluc0 Mean: 39.2
pgluc30 Mean: 41.17
pgluc60 Mean: 36.68
pgluc120 Mean: 29.63
pgluc180 Mean: 30.43
pins0 Mean: 416.3
pins30 Mean: 639.9
pins60 Mean: 969
pins120 Mean: 1373
pins180 Mean: 1153
platelet Mean: 206.3
ppyy0 Mean: 43.57
ppyy30 Mean: 64.34
ppyy60 Mean: 56.78
ppyy120 Mean: 54.02
ppyy180 Mean: 51.59
rGT Mean: 43.12
resistin Mean: 25013.66667
sicam1 Mean: 123
svcam1 Mean: 545.498
urea Mean: 4.954
vegfa Mean: 340.2
vegfc Mean: 128.7
vegfd Mean: 195.1
